Measured values published in ChEMBL document CHEMBL4610038, “The synthesis of trifluoromethylated N-nitroaryl-2-amino-1,3-dichloropropane derivatives and their evaluation as potential anti-cancer agents” (Bioorg Med Chem Lett, 2020).

How the values were obtained:
HCT-116 [1] = experiment: Cytotoxicity against human HCT116 cells assessed as cell viability at 100 uM relative to control; type: functional; conditions: read-out: Activity
ASPC1 [2] = experiment: Cytotoxicity against human AsPC1 cells assessed as reduction in cell viability; type: functional, cell-based
A549 [3] = experiment: Cytotoxicity against human A549 cells assessed as reduction in cell viability; type: functional, cell-based
MCF-10A = experiment: Cytotoxicity against human MCF10A cells assessed as reduction in cell viability; type: cell-based
Caco-2 [4] = experiment: Cytotoxicity against human Caco2 cells assessed as reduction in cell viability; type: functional, cell-based
SW48 [5] = experiment: Cytotoxicity against human SW48 cells assessed as reduction in cell viability; type: functional, cell-based
HCT-116 [6] = experiment: Cytotoxicity against human HCT116 cells assessed as reduction in cell viability; type: functional, cell-based
Caco-2 [7] = experiment: Cytotoxicity against human Caco2 cells assessed as cell viability at 100 uM relative to control; type: functional; conditions: read-out: Activity
SUNE1 [8] = experiment: Cytotoxicity against human SUNE1 cells assessed as cell viability at 100 uM relative to control; type: functional; conditions: read-out: Activity
T47D [9] = experiment: Cytotoxicity against human T47D cells assessed as reduction in cell viability; type: functional, cell-based
CNE [10] = experiment: Cytotoxicity against human CNE1 cells assessed as reduction in cell viability; type: functional, cell-based
SW48 [11] = experiment: Cytotoxicity against human SW48 cells assessed as cell viability at 100 uM relative to control; type: functional; conditions: read-out: Activity
SK-BR-3 [12] = experiment: Cytotoxicity against human SKBR3 cells assessed as cell viability at 100 uM relative to control; type: functional; conditions: read-out: Activity
SH-SY5Y [13] = experiment: Cytotoxicity against human SH-SY5Y cells assessed as cell viability at 100 uM relative to control; type: functional; conditions: read-out: Activity
HT-29 [14] = experiment: Cytotoxicity against human HT-29 cells assessed as reduction in cell viability; type: functional, cell-based
CNE [15] = experiment: Cytotoxicity against human CNE1 cells assessed as cell viability at 100 uM relative to control; type: functional; conditions: read-out: Activity
[16] = Cytotoxicity against human MCF10A cells assessed as cell viability at 100 uM relative to control; type: cell-based, MCF-10A; conditions: read-out: Activity
MDA-MB-468 [17] = experiment: Cytotoxicity against human MDA-MB-468 cells assessed as reduction in cell viability; type: functional, cell-based
SK-BR-3 [18] = experiment: Cytotoxicity against human SKBR3 cells assessed as reduction in cell viability; type: functional, cell-based
[19] = Cytotoxicity against human HK1 cells assessed as cell viability at 100 uM relative to control; type: functional; conditions: HK-1, read-out: Activity
[20] = Cytotoxicity against human MRC5 cells assessed as cell viability at 100 uM relative to control; type: cell-based; conditions: read-out: Activity
MCF7 [21] = experiment: Cytotoxicity against human MCF7 cells assessed as reduction in cell viability; type: functional, cell-based
A549 [22] = experiment: Cytotoxicity against human A549 cells assessed as cell viability at 100 uM relative to control; type: functional; conditions: read-out: Activity
SUNE1 [23] = experiment: Cytotoxicity against human SUNE1 cells assessed as reduction in cell viability; type: functional, cell-based
SW1990 [24] = experiment: Cytotoxicity against human SW1990 cells assessed as cell viability at 100 uM relative to control; type: functional; conditions: read-out: Activity
MDA-MB-231 [25] = experiment: Cytotoxicity against human MDA-MB-231 cells assessed as reduction in cell viability; type: functional, cell-based
MRC5 = experiment: Cytotoxicity against human MRC5 cells assessed as reduction in cell viability; type: cell-based
MCF7 [26] = experiment: Cytotoxicity against human MCF7 cells assessed as cell viability at 100 uM relative to control; type: functional; conditions: read-out: Activity
[27] = Cytotoxicity against human HK1 cells assessed as reduction in cell viability; type: functional, cell-based; conditions: HK-1
ASPC1 [28] = experiment: Cytotoxicity against human AsPC1 cells assessed as cell viability at 100 uM relative to control; type: functional; conditions: read-out: Activity
NCI-H1299 [29] = experiment: Cytotoxicity against human H1299 cells assessed as cell viability at 100 uM relative to control; type: functional; conditions: read-out: Activity
HT-29 [30] = experiment: Cytotoxicity against human HT-29 cells assessed as cell viability at 100 uM relative to control; type: functional; conditions: read-out: Activity
BXPC-3 [31] = experiment: Cytotoxicity against human BxPC3 cells assessed as reduction in cell viability; type: functional, cell-based
MDA-MB-231 [32] = experiment: Cytotoxicity against human MDA-MB-231 cells assessed as cell viability at 100 uM relative to control; type: functional; conditions: read-out: Activity
SW1990 [33] = experiment: Cytotoxicity against human SW1990 cells assessed as reduction in cell viability; type: functional, cell-based
BXPC-3 [34] = experiment: Cytotoxicity against human BxPC3 cells assessed as cell viability at 100 uM relative to control; type: functional; conditions: read-out: Activity
SH-SY5Y [35] = experiment: Cytotoxicity against human SH-SY5Y cells assessed as reduction in cell viability; type: functional, cell-based
MDA-MB-468 [36] = experiment: Cytotoxicity against human MDA-MB-468 cells assessed as cell viability at 100 uM relative to control; type: functional; conditions: read-out: Activity
T47D [37] = experiment: Cytotoxicity against human T47D cells assessed as cell viability at 100 uM relative to control; type: functional; conditions: read-out: Activity
NCI-H1299 [38] = experiment: Cytotoxicity against human H1299 cells assessed as reduction in cell viability; type: functional, cell-based

SMILES	viability at 100 µM (HCT-116 [1])	IC50 (ASPC1 [2])	IC50 (A549 [3])	IC50 (MCF-10A)	IC50 (Caco-2 [4])	IC50 (SW48 [5])	IC50 (HCT-116 [6])	viability at 100 µM (Caco-2 [7])	viability at 100 µM (SUNE1 [8])	IC50 (T47D [9])	IC50 (CNE [10])	viability at 100 µM (SW48 [11])	viability at 100 µM (SK-BR-3 [12])	viability at 100 µM (SH-SY5Y [13])	IC50 (HT-29 [14])	viability at 100 µM (CNE [15])	viability at 100 µM [16]	IC50 (MDA-MB-468 [17])	IC50 (SK-BR-3 [18])	viability at 100 µM [19]	further results
O=[N+]([O-])c1ccc(NC(CCl)CCl)cc1C(F)(F)F	45%	> 100 µM	70.4 µM	> 100 µM	37.1 µM	43.4 µM	83.8 µM	20.9%	44.9%	64.1 µM	33.2 µM	29.1%	52.7%	30.6%	63.1 µM	32.6%	59.7%	> 100 µM	> 100 µM	59.7%	viability at 100 µM [20]: 22.1%; IC50 (MCF7 [21]): 33.1 µM; viability at 100 µM (A549 [22]): 27.8%; IC50 (SUNE1 [23]): 93.1 µM; viability at 100 µM (SW1990 [24]): 36.7%; IC50 (MDA-MB-231 [25]): > 100 µM; IC50 (MRC5): 33.9 µM; viability at 100 µM (MCF7 [26]): 20.5%; IC50 [27]: > 100 µM; viability at 100 µM (ASPC1 [28]): 58.7%; viability at 100 µM (NCI-H1299 [29]): 43.7%; viability at 100 µM (HT-29 [30]): 38.4%; IC50 (BXPC-3 [31]): > 100 µM; viability at 100 µM (MDA-MB-231 [32]): 57.4%; IC50 (SW1990 [33]): 55.8 µM; viability at 100 µM (BXPC-3 [34]): 56.5%; IC50 (SH-SY5Y [35]): 56.4 µM; viability at 100 µM (MDA-MB-468 [36]): 58.6%; viability at 100 µM (T47D [37]): 33.2%; IC50 (NCI-H1299 [38]): > 100 µM
O=[N+]([O-])c1ccc(NC(CCl)CCl)cc1	79.4%	> 100 µM	> 100 µM	> 100 µM	> 100 µM	> 100 µM	> 100 µM	91.6%	110%	> 100 µM	> 100 µM	58.8%	73.1%	65.8%	> 100 µM	88.1%	82.7%	> 100 µM	> 100 µM	76.9%	viability at 100 µM [20]: 44.9%; IC50 (MCF7 [21]): 70.2 µM; viability at 100 µM (A549 [22]): 73.5%; IC50 (SUNE1 [23]): > 100 µM; viability at 100 µM (SW1990 [24]): 55.1%; IC50 (MDA-MB-231 [25]): > 100 µM; IC50 (MRC5): 58.3 µM; viability at 100 µM (MCF7 [26]): 38.8%; IC50 [27]: > 100 µM; viability at 100 µM (ASPC1 [28]): 67.7%; viability at 100 µM (NCI-H1299 [29]): 67.4%; viability at 100 µM (HT-29 [30]): 60.9%; IC50 (BXPC-3 [31]): > 100 µM; viability at 100 µM (MDA-MB-231 [32]): 72.4%; IC50 (SW1990 [33]): > 100 µM; viability at 100 µM (BXPC-3 [34]): 82.9%; IC50 (SH-SY5Y [35]): > 100 µM; viability at 100 µM (MDA-MB-468 [36]): 45.1%; viability at 100 µM (T47D [37]): 65.2%; IC50 (NCI-H1299 [38]): > 100 µM
O=[N+]([O-])c1ccccc1NC(CCl)CCl	64.9%	> 100 µM	> 100 µM	> 100 µM	> 100 µM	> 100 µM	> 100 µM	104%	80.5%	> 100 µM	> 100 µM	62.6%	79.9%	60.8%	> 100 µM	72.5%	88.7%	> 100 µM	> 100 µM	101%	viability at 100 µM [20]: 54.8%; IC50 (MCF7 [21]): 50.9 µM; viability at 100 µM (A549 [22]): 82.9%; IC50 (SUNE1 [23]): > 100 µM; viability at 100 µM (SW1990 [24]): 64.4%; IC50 (MDA-MB-231 [25]): > 100 µM; IC50 (MRC5): > 100 µM; viability at 100 µM (MCF7 [26]): 37.7%; IC50 [27]: > 100 µM; viability at 100 µM (ASPC1 [28]): 75.2%; viability at 100 µM (NCI-H1299 [29]): 109%; viability at 100 µM (HT-29 [30]): 65.3%; IC50 (BXPC-3 [31]): > 100 µM; viability at 100 µM (MDA-MB-231 [32]): 85.1%; IC50 (SW1990 [33]): > 100 µM; viability at 100 µM (BXPC-3 [34]): 105%; IC50 (SH-SY5Y [35]): > 100 µM; viability at 100 µM (MDA-MB-468 [36]): 63.6%; viability at 100 µM (T47D [37]): 69.8%; IC50 (NCI-H1299 [38]): > 100 µM
